Reference: PMC3680490, “Fragment-Based Screening Maps Inhibitor Interactions in the ATP-Binding Site of Checkpoint Kinase 2” (PLoS ONE, 2013)
Marks after values point to notes of the source that are not given here.

Tests used:
[1] = test system: ovarian cancer cell lines; conditions: cited from earlier work
[2] = cited from earlier work
[3] = biological target: T1, full-length CHK2 (Homo sapiens, UniProt O96017); assay: High-concentration AlphaScreen kinase assay (phosphorylation of CDC25C peptide); type: biochemical; conditions: primary screening data, compound concentration 300 µM, mean ± SD of triplicate; read-out: AlphaScreen™ (percentage inhibition)
T1 construct: full-length human CHK2 (residues 1 to 543); 6xHis (N); made in house; host or cells: Sf9 insect cells (baculovirus)
Method: To identify fragments binding in the ATP-binding-site of CHK2, we screened the in-house fragment library consisting of 1869 compounds, as described above, against full-length CHK2 using an AlphaScreen™ kinase assay, in which inhibition of full-length CHK2 was measured by a reduction in the phosphorylation of a CDC25C peptide (Figure S1). Because of the generally weak affinity of fragments, the assay was carried out at a high compound concentration (300 µM). […] All 45 hits were confirmed by re-assaying them under the same conditions. To eliminate potential false positives due to aggregation of poorly soluble fragments, or owing to interference with the AlphaScreen™ signal, the hits were assayed by including 0.01% (v/v) Triton™ X-100 in the assay buffer, and in the presence of phosphorylated rather than unphosphorylated peptide substrate, respectively. The average robust Z’ for the confirmation assays was 0.9. […] The final confirmed hit rate for the assay was 1.1%.
Full-length CHK2 was screened against the ICR fragment library consisting of 1869 fragments using a biochemical assay based on AlphaScreen™ technology in which the CHK2 kinase activity was measured by monitoring the phosphorylation of a CDC25C peptide using a phospho-specific antibody. Assay conditions were similar to those described by Hilton et al., but all fragments were screened at a final concentration of 300 µM. Amendments to the protocol included a change in the full-length CHK2 concentration to 2 nM and a final concentration of the antibody against phosphorylated CDC25C of 0.5 nM. For a positive control, 4-(2-amino-5-(thiophen-3-yl)pyridin-3-yl)benzoic acid (27, Figure S4, referred to as compound 19 in Hilton et al.) was added at a final concentration of 10 µM. The phosphorylation reaction was performed for 80 min at room temperature and stopped by the addition of 5 µL of the previously described detection buffer. Plates were incubated overnight at room temperature and in the dark, and the assay endpoint was measured using an Envision™ 2103 multilabel reader (Perkin Elmer Life Sciences, Seer Green, UK). Primary screening data were analyzed in ActivityBase (IDBS, Guildford, UK). Percentage inhibition was calculated as follows: 100*(1–(S–B)/(T–B)), where S represented the counts for each compound well, B the counts in the wells containing no enzyme, and T the counts in the total activity wells. The plates were assayed in triplicate and fragments with a percentage inhibition of 50% or more in at least two out of the three measurements were defined as initial hits. Initial hits were re-assayed under the same conditions in triplicate for reconfirmation. Furthermore, all hits were tested for interference by repeating the assay in the presence of phosphorylated rather than unphosphorylated peptide substrate, and for aggregation by including 0.01% (v/v) Triton™ X-100 in the assay buffer.

[4] = biological target: T1, full-length CHK2; assay: Microfluidic mobility shift assay for IC50 determination; type: biochemical; conditions: for Ligand Efficiency: calculated using mean mobility shift IC50, Table 1; for IC50: fragment hits, mean ± SD of triplicate, 100 µM ATP
Method: In addition, percentage inhibition and IC50 values for all follow-up compounds were determined in triplicate using this assay. […] An ECHO® 550 acoustic dispenser (Labcyte Inc™, Dublin, Ireland) was used to generate duplicate eight-point dilution curves directly into 384-well low-volume polystyrene assay plates (Corning Life Sciences, New York, USA). For each compound, a 10 mM stock concentration in 100% DMSO was used.
The plate was sealed and centrifuged for 1 min at 1000 rpm before incubation for 1 h at room temperature.
IC50 values were calculated from a four-parameter logistics fit of percentage inhibition versus concentration using the Studies package (from Dotmatics, Bishops Stortford, UK).

[5] = biological target: T2, kinase domain of CHK2 (CHK2-KD, residues 210-531) (Homo sapiens, UniProt O96017); assay: Thermal shift assay (SYPRO Orange); type: binding; conditions: for T m, ligand (standard deviations from the plate mean): highest value of two independent measurements, 2 mM fragment; for ΔT m, ligand: mean of two independent measurements, 2 mM ligand
T2 construct: The kinase domain of CHK2 (residues 210-531) was produced as a GST-fusion protein; GST (cleaved yes); made in house
Method: In parallel, we screened the fragment library against the kinase domain of CHK2 (CHK2-KD, residues 210-531) using a thermal shift assay. In a thermal shift assay, the folding stability of a target protein is measured by its thermally-induced unfolding. An increase in melting temperature of a protein in the presence of a ligand is used to identify ligand binding, assuming that the bound ligand stabilizes the target protein and therefore increases the energy required for its thermal unfolding. The thermal unfolding of CHK2-KD was measured using the fluorescent dye SYPRO® Orange™, which is sensitive to its environment and preferentially binds to hydrophobic patches that are typically exposed upon protein unfolding. To identify the hit threshold, we calculated the standard deviation (SD) of the melting temperature of CHK2 in the presence of a ligand (T m, ligand) for each plate. Ligands with a T m, ligand value of more than 2 standard deviations above the mean T m, ligand for each plate in at least one of the duplicates were defined as hits. We calculated the mean change in melting temperature from duplicate measurements (ΔT m, ligand) by subtracting the mean melting temperature of six reference samples of protein without ligand (T m, 0) from the melting temperature of CHK2 samples with ligand (T m, ligand).
Thermal shift screening of the ICR fragment library against a truncated version of CHK2 comprising only the kinase domain (CHK2-KD), was carried out using an Opticon 2 RT-PCR machine (Bio-Rad, Hemel Hempstead, UK). […] All experiments were performed in white 96-well SuperPlate skirted PCR-plates (ABgene®, Thermo Scientific, Loughborough, UK). Fragments were screened at a final concentration of 2 mM in assay buffer containing a final concentration of 2% (v/v) DMSO and all measurements were carried out in duplicate. The well contents were mixed by centrifugation for 2 min at 500 g and pre-equilibrated for 5 min at 20°C before starting the thermal shift experiment. All melting curves were generated from 20°C to 95°C, raising the temperature in steps of 0.5°C and keeping it constant for 15 seconds at each step. […] MgATP (2 mM ATP and 5 mM MgCl2) in the presence of 2% (v/v) DMSO was used as a positive control. For each experiment, the data range of the protein unfolding transition was established using the Excel-based worksheet ‘DSF Analysis’, made available by the Structural Genomics Consortium (SGC), Oxford, and subsequently fitted with a Boltzmann sigmoidal equation using GraphPad Prism version 5 (GraphPad Software, San Diego, California, USA, www.graphpad.com), from which the melting temperature T m was calculated. The change in melting temperature caused by ligand binding, expressed as the mean from duplicate measurements (ΔT m, ligand), was calculated by subtracting T m, 0 from each melting temperature obtained in the presence of a ligand (T m, ligand) using the DSF-analysis spreadsheet. The hit threshold was determined by calculating the standard deviation (SD) of the melting temperatures of CHK2 in the presence of ligand (T m, ligand) for every plate. Ligands with a T m, ligand>mean(T m, ligand) +2SD in at least one of the duplicates were defined as hits.

[6] = biological target: T3, CHK1 (Homo sapiens, UniProt O14757); assay: CHK1 mobility shift assay; type: biochemical; conditions: inactive
T3 sequence (O14757 1-476): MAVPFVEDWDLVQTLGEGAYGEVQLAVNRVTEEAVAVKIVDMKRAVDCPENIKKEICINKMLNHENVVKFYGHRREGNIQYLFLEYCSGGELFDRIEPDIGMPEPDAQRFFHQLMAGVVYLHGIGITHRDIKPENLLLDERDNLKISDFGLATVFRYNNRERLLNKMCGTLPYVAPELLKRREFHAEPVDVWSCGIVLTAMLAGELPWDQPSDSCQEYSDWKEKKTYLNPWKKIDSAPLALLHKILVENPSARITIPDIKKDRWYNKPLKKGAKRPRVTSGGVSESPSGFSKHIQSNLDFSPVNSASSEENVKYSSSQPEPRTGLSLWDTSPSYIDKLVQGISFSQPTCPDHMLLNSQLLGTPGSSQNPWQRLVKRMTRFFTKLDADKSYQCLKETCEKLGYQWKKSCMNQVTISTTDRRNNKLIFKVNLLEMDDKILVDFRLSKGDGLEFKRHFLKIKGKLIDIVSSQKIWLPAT
Description: However, it is very difficult to assess the contribution to selectivity of binding in this pocket using the inhibitor 26, because its CHK2 selectivity is most likely dominated by the unusual binding of the benzamidazole scaffold to the hinge through a mediating water molecule.

T1 sequence (O96017 whole entry, the tested form may be a part): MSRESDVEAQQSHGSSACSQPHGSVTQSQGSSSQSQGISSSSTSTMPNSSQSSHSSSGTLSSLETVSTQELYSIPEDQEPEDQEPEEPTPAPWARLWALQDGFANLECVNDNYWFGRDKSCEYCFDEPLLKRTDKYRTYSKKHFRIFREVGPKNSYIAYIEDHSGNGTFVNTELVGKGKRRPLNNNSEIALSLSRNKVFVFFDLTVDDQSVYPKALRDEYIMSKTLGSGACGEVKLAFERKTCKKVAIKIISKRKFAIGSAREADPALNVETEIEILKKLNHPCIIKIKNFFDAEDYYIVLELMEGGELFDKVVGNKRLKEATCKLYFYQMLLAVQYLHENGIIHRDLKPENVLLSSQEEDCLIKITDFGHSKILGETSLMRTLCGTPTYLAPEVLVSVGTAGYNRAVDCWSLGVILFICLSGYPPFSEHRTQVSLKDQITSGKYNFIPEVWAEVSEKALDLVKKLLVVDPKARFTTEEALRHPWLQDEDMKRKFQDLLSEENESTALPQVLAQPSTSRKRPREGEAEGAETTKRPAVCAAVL
T2 sequence (O96017 210-531): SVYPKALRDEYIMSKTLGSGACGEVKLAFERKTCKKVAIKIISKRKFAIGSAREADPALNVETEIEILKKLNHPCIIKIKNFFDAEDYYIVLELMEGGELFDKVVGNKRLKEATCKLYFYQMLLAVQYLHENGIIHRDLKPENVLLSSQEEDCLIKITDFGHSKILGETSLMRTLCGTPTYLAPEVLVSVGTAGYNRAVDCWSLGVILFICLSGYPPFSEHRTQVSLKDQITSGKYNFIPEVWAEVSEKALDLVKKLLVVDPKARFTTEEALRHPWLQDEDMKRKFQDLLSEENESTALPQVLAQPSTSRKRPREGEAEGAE

For `COc1cc2nc(-c3cc(F)ccc3O)nc(N[C@@H]3CNC[C@H]3C(C)(C)O)c2cc1OC` [CCT241533], which “Potentiation in combination with genotoxic agents” value [1] is on record?
The value was “no such effects have been observed”.

What about the “Potentiation of the cytotoxicity of PARP inhibitors such as AG14447 and olaparib” value [2] of the same molecule?
The value was “potentiates the cytotoxicity”.

Which results are given for `c1ccc2c(c1)[nH]c1ncnn12` [Compound 11]?
inhibition at 300 µM [3]: 91.4 ± 0.4%; Ligand Efficiency [4]: 0.64 kcal mol^−1 HA^−1; IC50 [4]: 2.7 ± 0.2 µM; T m, ligand (standard deviations from the plate mean) [5]: 5.8 standard deviations; ΔT m, ligand [5]: 7.0±0.8 °C

What does the source list for `C/C(=N/O)c1ccc(O)cc1O` [Compound 12]?
inhibition at 300 µM [3]: 58.2 ± 1.7%; Ligand Efficiency [4]: 0.47 kcal mol^−1 HA^−1; IC50 [4]: 85.6 ± 7.9 µM; T m, ligand (standard deviations from the plate mean) [5]: 2.9 standard deviations; ΔT m, ligand [5]: 3.0 ^f °C

Which inhibition at 300 µM [3] does the source give for `O=C(NCc1ccco1)c1ccc2nccnc2c1` [Compound 13] here?
The inhibition at 300 µM was 76.1 ± 1.1%.

What about the “Ligand Efficiency” value [4] of the same molecule?
Its value is 0.36 kcal mol^−1 HA^−1.

And the IC50 [4]?
The IC50 was 11.7 ± 2 µM.

And the “T m, ligand (standard deviations from the plate mean)” value [5]?
Its value is 5.7 standard deviations.

What about the “ΔT m, ligand” value [5] of the same molecule?
The value was 5.6±0.3 °C.

And the IC50 [6]?
The IC50 was over 200 µM.

For `CC(C)(C)NC(=O)Nc1ccc2nccnc2c1` [Compound 14], which inhibition at 300 µM [3] is on record?
Its inhibition at 300 µM is 59.5 ± 1.9%.

And the “Ligand Efficiency” value [4]?
The value was 0.34 kcal mol^−1 HA^−1.

And the IC50 [4]?
Its IC50 is 36.9 ± 9 µM.

And the “T m, ligand (standard deviations from the plate mean)” value [5]?
Its value is 4.3 standard deviations.

And the “ΔT m, ligand” value [5]?
The value was 4.5±0.02 °C.

What does the source list for `Cc1ccc2ncnc(N)c2c1` [Compound 15]?
inhibition at 300 µM [3]: 72.8 ± 6.7%; Ligand Efficiency [4]: 0.55 kcal mol^−1 HA^−1; IC50 [4]: 15.9 ± 1.1 µM; T m, ligand (standard deviations from the plate mean) [5]: 4.6 standard deviations; ΔT m, ligand [5]: 5.0±0.6 °C

Which results are given for `Cc1cc(-c2ccccc2)n[nH]1` [Compound 16]?
inhibition at 300 µM [3]: 56.1 ± 1%; T m, ligand (standard deviations from the plate mean) [5]: 3.7 standard deviations; ΔT m, ligand [5]: 2.6±1.7 °C

For `Nc1cc(-c2cccnc2)n[nH]1` [Compound 17], which inhibition at 300 µM [3] is on record?
Its inhibition at 300 µM is 71.5 ± 25.5%.

And the “Ligand Efficiency” value [4]?
Its value is 0.47 kcal mol^−1 HA^−1.

And the IC50 [4]?
Its IC50 is 76.2 ± 3.3 µM.

And the “T m, ligand (standard deviations from the plate mean)” value [5]?
The value was 4.2 standard deviations.

And the “ΔT m, ligand” value [5]?
Its value is 3.7±0.9 °C.
